The target of assay [1] is V-ATPase A (V-type proton ATPase catalytic subunit A) (Caenorhabditis elegans, UniProt Q9XW92). Description: microscale thermophoresis. The class given is binding. On the technique in general: Microscale thermophoresis detects binding through changes in fluorescence in a small temperature gradient.
Assay [2] concerns the target Hsp70 A (heat shock 70 kDa protein A) (Caenorhabditis elegans, UniProt P09446). The assay is described as follows: microscale thermophoresis. It is filed as binding.

One molecule from article PMC12019385 (Scientific Reports, 2025) can be followed below.

A word on the Kd: it is the concentration at which binding is half-saturated.

Sequence of V-ATPase A (V-type proton ATPase catalytic subunit A) (Q9XW92 whole entry): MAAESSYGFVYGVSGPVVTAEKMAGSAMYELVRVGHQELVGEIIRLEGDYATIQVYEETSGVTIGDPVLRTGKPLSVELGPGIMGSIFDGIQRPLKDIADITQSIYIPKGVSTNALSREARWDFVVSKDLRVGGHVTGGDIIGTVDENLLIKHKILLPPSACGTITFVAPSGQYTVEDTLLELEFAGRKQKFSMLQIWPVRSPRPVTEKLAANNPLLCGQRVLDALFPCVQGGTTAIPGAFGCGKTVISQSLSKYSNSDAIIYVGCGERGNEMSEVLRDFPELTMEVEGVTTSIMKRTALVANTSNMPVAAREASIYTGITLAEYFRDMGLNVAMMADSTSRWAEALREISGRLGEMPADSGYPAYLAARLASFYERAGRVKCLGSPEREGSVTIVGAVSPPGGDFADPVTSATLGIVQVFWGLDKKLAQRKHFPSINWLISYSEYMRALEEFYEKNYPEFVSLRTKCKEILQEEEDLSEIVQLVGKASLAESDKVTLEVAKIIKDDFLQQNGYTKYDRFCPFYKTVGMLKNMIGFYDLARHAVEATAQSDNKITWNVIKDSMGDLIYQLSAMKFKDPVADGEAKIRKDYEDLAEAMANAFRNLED
Sequence of Hsp70 A (heat shock 70 kDa protein A) (P09446 whole entry): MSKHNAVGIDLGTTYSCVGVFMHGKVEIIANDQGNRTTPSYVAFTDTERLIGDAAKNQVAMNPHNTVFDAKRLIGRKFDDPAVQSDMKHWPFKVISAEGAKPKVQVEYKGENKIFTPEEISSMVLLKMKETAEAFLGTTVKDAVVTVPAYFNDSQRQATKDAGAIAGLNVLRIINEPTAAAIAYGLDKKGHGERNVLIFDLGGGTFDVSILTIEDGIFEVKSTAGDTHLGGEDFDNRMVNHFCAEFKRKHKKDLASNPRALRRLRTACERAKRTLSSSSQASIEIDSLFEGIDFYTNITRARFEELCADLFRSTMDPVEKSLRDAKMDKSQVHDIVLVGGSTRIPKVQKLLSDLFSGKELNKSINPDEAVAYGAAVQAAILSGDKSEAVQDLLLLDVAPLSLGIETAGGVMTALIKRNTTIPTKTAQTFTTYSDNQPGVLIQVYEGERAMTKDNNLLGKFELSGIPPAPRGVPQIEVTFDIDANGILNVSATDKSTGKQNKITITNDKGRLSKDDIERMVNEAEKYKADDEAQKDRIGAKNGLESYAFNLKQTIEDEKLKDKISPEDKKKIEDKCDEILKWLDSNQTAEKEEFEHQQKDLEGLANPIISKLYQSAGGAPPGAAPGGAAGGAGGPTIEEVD

With `CCCCCCCCCC(C)=O` [2-undecanone], the Kd was found to be 0.302 ± 0.0439 µM in assay [1] and 0.117 ± 0.0163 µM in assay [2].
